Tests used:
Assay in all cases: relative viability (nuclei count vs DMSO), 5 days (fraction); higher = more cells survive
LXF-289 = tested on: LXF-289
Procedure, shortened: (§1)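 Cells from lung cancer lines were seeded into 1536-well plates and, one day later, dosed by pin tool. Treatments were either a single drug or a fixed dose of an anchor drug with five library-drug doses (not always all listed) in √10 steps. After 5 days, nuclei were stained in a one-step fixation (final 0.05% Triton X-100, 1% formaldehyde, 1 ug/ml Hoechst) and counted on 4× images, and relative viability is the treated-to-vehicle nuclei ratio, as the median of duplicate plates.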

PC-3 [JPC-3] = tested on: PC-3 [JPC-3]
Procedure, shortened: as §1

NCI-H2126 = tested on: NCI-H2126
Procedure, shortened: as §1

LOU-NH91 = tested on: LOU-NH91
Procedure, shortened: as §1

NCI-H358 = tested on: NCI-H358
Procedure, shortened: as §1

NCI-H1734 = tested on: NCI-H1734
Procedure, shortened: as §1

HOP-62 = tested on: HOP-62
Procedure, shortened: as §1

LC-2-ad = tested on: LC-2-ad
Procedure, shortened: as §1

NCI-H1975 = tested on: NCI-H1975
Procedure, shortened: as §1

NCI-H1792 = tested on: NCI-H1792
Procedure, shortened: as §1

NCI-H460 = tested on: NCI-H460
Procedure, shortened: as §1

NCI-H647 = tested on: NCI-H647
Procedure, shortened: as §1

Structure (SMILES): CC1(C)CCC(c2ccc(Cl)cc2)=C(CN2CCN(c3ccc(C(=O)NS(=O)(=O)c4ccc(N[C@H](CCN5CCOCC5)CSc5ccccc5)c(S(=O)(=O)C(F)(F)F)c4)cc3)CC2)C1 [Navitoclax] + COc1cccc2cc(-c3nc([C@H]4CC[C@H](C(=O)O)CC4)n4ncnc(N)c34)[nH]c12 [OSI-027] (partner 0.5 µM)
- relative viability (LXF-289; first compound 0.005 µM): 0.77
- relative viability (LXF-289; first compound 0.01581 µM): 0.867
- relative viability (LXF-289; first compound 0.05 µM): 0.731
- relative viability (LXF-289; first compound 0.1581 µM): 0.753
- relative viability (LXF-289; first compound 0.5 µM): 0.795
- relative viability (PC-3 [JPC-3]; first compound 0.005 µM): 0.844
- relative viability (PC-3 [JPC-3]; first compound 0.01581 µM): 0.764
- relative viability (PC-3 [JPC-3]; first compound 0.05 µM): 0.768
- relative viability (PC-3 [JPC-3]; first compound 0.1581 µM): 0.809
- relative viability (PC-3 [JPC-3]; first compound 0.5 µM): 0.703
- relative viability (NCI-H2126; first compound 0.005 µM): 0.764
- relative viability (NCI-H2126; first compound 0.01581 µM): 0.849
- relative viability (NCI-H2126; first compound 0.1581 µM): 0.72
- relative viability (NCI-H2126; first compound 0.5 µM): 0.716
- relative viability (LOU-NH91; first compound 0.005 µM): 0.775
- relative viability (LOU-NH91; first compound 0.01581 µM): 0.76
- relative viability (LOU-NH91; first compound 0.05 µM): 0.699
- relative viability (LOU-NH91; first compound 0.1581 µM): 0.755
- relative viability (LOU-NH91; first compound 0.5 µM): 0.661
- relative viability (NCI-H358; first compound 0.005 µM): 0.785
- relative viability (NCI-H358; first compound 0.01581 µM): 1.01
- relative viability (NCI-H358; first compound 0.05 µM): 0.706
- relative viability (NCI-H358; first compound 0.1581 µM): 0.845
- relative viability (NCI-H358; first compound 0.5 µM): 0.686
- relative viability (NCI-H1734; first compound 0.005 µM): 0.617
- relative viability (NCI-H1734; first compound 0.01581 µM): 0.822
- relative viability (NCI-H1734; first compound 0.1581 µM): 0.53
- relative viability (NCI-H1734; first compound 0.5 µM): 0.622
- relative viability (HOP-62; first compound 0.005 µM): 0.734
- relative viability (HOP-62; first compound 0.01581 µM): 0.971
- relative viability (HOP-62; first compound 0.05 µM): 0.863
- relative viability (HOP-62; first compound 0.1581 µM): 0.648
- relative viability (HOP-62; first compound 0.5 µM): 0.894
- relative viability (LC-2-ad; first compound 0.005 µM): 0.802
- relative viability (LC-2-ad; first compound 0.01581 µM): 1.09
- relative viability (LC-2-ad; first compound 0.05 µM): 0.895
- relative viability (LC-2-ad; first compound 0.1581 µM): 0.762
- relative viability (LC-2-ad; first compound 0.5 µM): 0.767
- relative viability (NCI-H1975; first compound 0.005 µM): 0.764
- relative viability (NCI-H1975; first compound 0.01581 µM): 0.83
- relative viability (NCI-H1975; first compound 0.05 µM): 0.823
- relative viability (NCI-H1975; first compound 0.1581 µM): 0.688
- relative viability (NCI-H1975; first compound 0.5 µM): 0.677
- relative viability (NCI-H1792; first compound 0.005 µM): 0.747
- relative viability (NCI-H1792; first compound 0.01581 µM): 0.799
- relative viability (NCI-H1792; first compound 0.05 µM): 0.667
- relative viability (NCI-H1792; first compound 0.1581 µM): 0.726
- relative viability (NCI-H1792; first compound 0.5 µM): 0.705
- relative viability (NCI-H460; first compound 0.005 µM): 0.652
- relative viability (NCI-H460; first compound 0.01581 µM): 0.702
- relative viability (NCI-H460; first compound 0.05 µM): 0.821
- relative viability (NCI-H460; first compound 0.1581 µM): 0.652
- relative viability (NCI-H460; first compound 0.5 µM): 0.671
- relative viability (NCI-H647; first compound 0.005 µM): 0.674
- relative viability (NCI-H647; first compound 0.01581 µM): 0.738
